Laboratory results reported in PMC11510191, “Exploring Benzo[h]chromene Derivatives as Agents against Protozoal and Mycobacterial Infections” (Pharmaceuticals, 2024).
pIC50: −log10 of the molar value. Values after ≈ are worked out from the molar mass of the structure shown. Read-outs that look alike come from different tables or passages of the source.

Key:
[1] = tested on: Leishmania brazilensis (L. b) promastigotes; assay: Leishmanicidal activity on L. braziliensis promastigotes (resazurin); conditions: for pIC50: Leishmania, 48 h, read-out: Leishmanicidal Activity IC50—L. b; for Selectivity Index L929/ L. b: SI = CC50 L929/IC50 parasites
Procedure: (§1) The culture of L. braziliensis (MHOM/CO/88/UA301) and L. infantum (MCAN/ES/92/BCN83) was obtained from the Facultad de Farmacia, Universidad Complutense de Madrid, Spain.
(§2) The maintenance of the strains, the form of cultivation, and the isolation of shape promastigota followed the procedures described by Roldós et al. [8]. The promastigotes were grown at 22 °C in Schneider’s Drosophila medium supplemented with 20% FBS. The assay was performed using a modification of a previous method [47]. Promastigotes (2 × 10^6 parasites/well) were cultured in 96-well plastic plates. Compounds were dissolved in dimethylsulfoxide (DMSO). Different dilutions of the compounds up to a 200 µL final volume were added. After 48 h at 26 °C, 20 µL of 2 mM resazurin solution was added and the oxidation–reduction was quantified at 570 and 600 nm. The solution of resazurin was prepared at 2.5 mM in phosphate-buffered solution (PBS), pH 7.4, and filtered through 0.22 µM prior to use. All tests were carried out in triplicate. Resazurin sodium salt was obtained from Sigma–Aldrich (St. Louis, MO, USA) and stored at 4 °C protected from light. The efficacy of each compound was estimated by calculating the IC50 values.

[2] = in vitro; conditions: mouse
[3] = tested on: Leishmania infantum (L. i) promastigotes; assay: Leishmanicidal activity on L. infantum promastigotes (resazurin); conditions: for pIC50: Leishmania infantum, 48 h, read-out: Leishmanicidal Activity IC50—L. i; for Selectivity Index L929/ L. i: SI = CC50 L929/IC50 parasites
Procedure: as §1, §2

[4] = tested on: L. innocua (G+); assay: MIC broth microdilution; format: cell-based; conditions: Listeria innocua, 24 h
[5] = tested on: M. fortuitum LIID-01; assay: MIC broth microdilution; format: cell-based; conditions: Mycolicibacterium fortuitum, LIID01, 72 h
[6] = tested on: M. abscessus LIID-03; assay: MIC broth microdilution; format: cell-based; conditions: Mycobacteroides abscessus, LIID03, 72 h
[7] = tested on: P. aeruginosa (G−); assay: MIC broth microdilution; format: cell-based; conditions: Pseudomonas aeruginosa, 24 h
[8] = tested on: B. cereus (G+); assay: MIC broth microdilution; format: cell-based; conditions: Bacillus cereus, 24 h
[9] = tested on: M. intracellulare LIID-02; assay: MIC broth microdilution; format: cell-based; conditions: Mycobacterium intracellulare, LIID02
[10] = tested on: L. monocytogenes (G+); assay: MIC broth microdilution; format: cell-based; conditions: Listeria monocytogenes, 24 h
[11] = tested on: M. luteus (G+); assay: MIC broth microdilution; format: cell-based; conditions: Micrococcus luteus, 24 h
[12] = tested on: E. coli (G−); assay: MIC broth microdilution; format: cell-based; conditions: Escherichia coli, 24 h
[13] = tested on: NCTC929 fibroblast cells (L929); assay: Cytotoxicity on L929 fibroblasts (resazurin); conditions: L929 fibroblasts
[14] = Cytotoxicity on L929 fibroblasts (resazurin); conditions: mouse
[15] = tested on: M. abscessus LIID-01; assay: MIC broth microdilution; format: cell-based; conditions: Mycobacteroides abscessus, LIID01, 72 h
[16] = tested on: E. faecalis (G+); assay: MIC broth microdilution; format: cell-based; conditions: Enterococcus faecalis, 24 h
[17] = tested on: S. aureus (G+); assay: MIC broth microdilution; format: cell-based; conditions: Staphylococcus aureus, 24 h
[18] = tested on: M. tuberculosis CIPTIR -D152; assay: MIC broth microdilution; format: cell-based; conditions: Mycobacterium tuberculosis
[19] = tested on: M. tuberculosis ATCC H37Rv; assay: MIC broth microdilution; format: cell-based; conditions: Mycobacterium tuberculosis, H37RV
[20] = tested on: M. intracellulare LIID-01; assay: MIC broth microdilution; format: cell-based; conditions: Mycobacterium intracellulare, LIID01
[21] = tested on: T. cruzi epimastigotes; assay: Trypanocidal activity on T. cruzi epimastigotes (CL-B5 lacZ, CPRG); format: cell-based, Trypanosoma cruzi clone CL-B5; conditions: for Selectivity Index L929/ T. cruzi: SI = CC50 L929/IC50 parasites; for pIC50: 72 h
Procedure: For in vitro studies of T. cruzi. the clone CL-B5 was used. Parasites were stably transfected with the Escherichia coli β-galactosidase gene (lacZ), provided by Facultad de Farmacia (Universidad Complutense de Madrid). Epimastigotes were grown at 28 °C in liver infusion tryptose broth (Difco, Detroit, MI, USA) with 10% fetal bovine serum (FBS) (Gibco, Carlsbad, CA, USA), penicillin (Ern S.A., Barcelona, Spain), and streptomycin (Reig Jofré S.A., Barcelona. Spain), as described previously, and harvested during the exponential growth phase. Briefly, the screening assay was performed in 96-well microplates (Sarstedt, Inc., Newton, NC, USA) with cultures that had not reached the stationary phase. Briefly, epimastigotes were seeded at 2 × 10^5 parasites/mL in 200 µL growth media. The plates were then incubated with the respective compounds at 28 °C for 72 h. Afterwards, 50 µL of CPRG solution was added, resulting in a final concentration of 200 µM. The plates were incubated at 37 °C for an additional 4 h and then read at 595 nm. Each concentration was tested in triplicate. […] These values were calculated from the sigmoidal dose–response curve adjustment using the statistical software program Graph-Pad Prims 3.0. Benznidazole was used as a reference drug.

[22] = tested on: M. abscessus LIID-02; assay: MIC broth microdilution; format: cell-based; conditions: Mycobacteroides abscessus, LIID02, 72 h
[23] = tested on: M. tuberculosis CIPTIR-F296; assay: MIC broth microdilution; format: cell-based; conditions: Mycobacterium tuberculosis, CIPTIRF296
[24] = tested on: S. typhi (G−); assay: MIC broth microdilution; format: cell-based; conditions: Salmonella enterica, 24 h
[25] = Trypanosoma cruzi, epimastigotes, read-out: Trypanocidal Activity IC50 T. cruzi

CCCCCCCCCCCCCCCCOP(=O)([O-])OCC[N+](C)(C)C [Miltefosine, reference compound]
pIC50 [1]: 4.19
Selectivity Index L929/ L. b [1]: 43.0
CC50 at 24 h [2]: 2750 µM
pIC50 [3]: 4.60
Selectivity Index L929/ L. i [3]: 109.7

Cc1ccc(S(=O)(=O)n2cc(CCC(=O)Oc3c4c(c5ccccc5c3OC(=O)CCc3cn(S(=O)(=O)c5ccc(C)cc5)nn3)OC(C)(C)C=C4)nn2)cc1 [Compound 2f]
pIC50 [1]: 4.84
Selectivity Index L929/ L. b [1]: 2
MIC [4]: > 200 µg/mL
MIC [5]: > 200 µg/mL
MIC [6]: > 200 µg/mL
MIC [7]: > 200 µg/mL
MIC [8]: > 200 µg/mL
MIC [9]: > 200 µg/mL
MIC [10]: > 200 µg/mL
MIC [11]: > 200 µg/mL
MIC [12]: > 200 µg/mL
Cytotoxicity (in words) [13]: most cytotoxic
CC50 at 24 h [14]: 31.8 µM
MIC [15]: > 200 µg/mL
MIC [16]: > 200 µg/mL
MIC [17]: > 200 µg/mL
MIC [18]: > 200 µg/mL
MIC [19]: > 200 µg/mL
MIC [20]: 50 µg/mL (≈ 62.7 µM)
Selectivity Index L929/ T. cruzi [21]: 2
pIC50 ([21]; Trypanosoma cruzi, read-out: Trypanocidal Activity IC50 T. cruzi, epimastigotes, 72 h): 4.67
pIC50 ([21]; epimastigotes, read-out: Trypanocidal Activity IC50 T. cruzi): 4.68
MIC [22]: > 200 µg/mL
MIC [23]: > 200 µg/mL
MIC [24]: > 200 µg/mL
pIC50 [3]: 4.42
Selectivity Index L929/ L. i [3]: 1

Cc1ccc(S(=O)(=O)n2cc(CCCC(=O)Oc3c4c(c5ccccc5c3OC(=O)CCCc3cn(S(=O)(=O)c5ccc(C)cc5)nn3)OC(C)(C)C=C4)nn2)cc1 [Compound 3f]
pIC50 [1]: 4.75
Selectivity Index L929/ L. b [1]: 18
MIC [4]: 100 µg/mL (≈ 121 µM)
MIC [5]: 100 µg/mL (≈ 121 µM)
MIC [6]: 100 µg/mL (≈ 121 µM)
MIC [7]: 100 µg/mL (≈ 121 µM)
MIC [8]: 100 µg/mL (≈ 121 µM)
MIC [9]: > 200 µg/mL
MIC [10]: 100 µg/mL (≈ 121 µM)
MIC [11]: 100 µg/mL (≈ 121 µM)
MIC [12]: 100 µg/mL (≈ 121 µM)
Cytotoxicity (in words) [13]: no cytotoxicity
CC50 at 24 h [14]: 312 µM
MIC [15]: 100 µg/mL (≈ 121 µM)
MIC [16]: > 200 µg/mL
MIC [17]: 100 µg/mL (≈ 121 µM)
MIC [18]: > 200 µg/mL
MIC [19]: > 200 µg/mL
MIC [20]: 100 µg/mL (≈ 121 µM)
Selectivity Index L929/ T. cruzi [21]: 13
pIC50 [21, 25]: 4.61
MIC [22]: 100 µg/mL (≈ 121 µM)
MIC [23]: > 200 µg/mL
MIC [24]: > 200 µg/mL
pIC50 [3]: 4.33
Selectivity Index L929/ L. i [3]: 7

C#CCCC(=O)Oc1c2c(c3ccccc3c1OC(=O)CCC#C)OC(C)(C)C=C2 [Compound 1a]
pIC50 [1]: 4.97
Selectivity Index L929/ L. b [1]: 10
MIC [4]: > 200 µg/mL
MIC [5]: > 200 µg/mL
MIC [6]: > 200 µg/mL
MIC [7]: > 200 µg/mL
MIC [8]: > 200 µg/mL
MIC [9]: > 200 µg/mL
MIC [10]: > 200 µg/mL
MIC [11]: > 200 µg/mL
MIC [12]: > 200 µg/mL
CC50 at 24 h [14]: 106 µM
MIC [15]: > 200 µg/mL
MIC [16]: > 200 µg/mL
MIC [17]: 100 µg/mL (≈ 248 µM)
MIC [18]: > 200 µg/mL
MIC [19]: > 200 µg/mL
MIC [20]: 50 µg/mL (≈ 124 µM)
Selectivity Index L929/ T. cruzi [21]: 6
pIC50 [21, 25]: 4.72
MIC [22]: > 200 µg/mL
MIC [23]: > 200 µg/mL
MIC [24]: > 200 µg/mL
pIC50 [3]: 4.60
Selectivity Index L929/ L. i [3]: 4
